We go through 51 molecules from US11427556B2, “Urea derivatives as inhibitors of ASK1” (Hepagene Therapeutics (HK) Limited, priority 2017, dated 2022).

The first assay addresses T1, Recombinant human ASK1 kinase (Homo sapiens, UniProt Q99683).
T1 construct: purchased Invitrogen Inc
T1 sequence (Q99683 1-1374): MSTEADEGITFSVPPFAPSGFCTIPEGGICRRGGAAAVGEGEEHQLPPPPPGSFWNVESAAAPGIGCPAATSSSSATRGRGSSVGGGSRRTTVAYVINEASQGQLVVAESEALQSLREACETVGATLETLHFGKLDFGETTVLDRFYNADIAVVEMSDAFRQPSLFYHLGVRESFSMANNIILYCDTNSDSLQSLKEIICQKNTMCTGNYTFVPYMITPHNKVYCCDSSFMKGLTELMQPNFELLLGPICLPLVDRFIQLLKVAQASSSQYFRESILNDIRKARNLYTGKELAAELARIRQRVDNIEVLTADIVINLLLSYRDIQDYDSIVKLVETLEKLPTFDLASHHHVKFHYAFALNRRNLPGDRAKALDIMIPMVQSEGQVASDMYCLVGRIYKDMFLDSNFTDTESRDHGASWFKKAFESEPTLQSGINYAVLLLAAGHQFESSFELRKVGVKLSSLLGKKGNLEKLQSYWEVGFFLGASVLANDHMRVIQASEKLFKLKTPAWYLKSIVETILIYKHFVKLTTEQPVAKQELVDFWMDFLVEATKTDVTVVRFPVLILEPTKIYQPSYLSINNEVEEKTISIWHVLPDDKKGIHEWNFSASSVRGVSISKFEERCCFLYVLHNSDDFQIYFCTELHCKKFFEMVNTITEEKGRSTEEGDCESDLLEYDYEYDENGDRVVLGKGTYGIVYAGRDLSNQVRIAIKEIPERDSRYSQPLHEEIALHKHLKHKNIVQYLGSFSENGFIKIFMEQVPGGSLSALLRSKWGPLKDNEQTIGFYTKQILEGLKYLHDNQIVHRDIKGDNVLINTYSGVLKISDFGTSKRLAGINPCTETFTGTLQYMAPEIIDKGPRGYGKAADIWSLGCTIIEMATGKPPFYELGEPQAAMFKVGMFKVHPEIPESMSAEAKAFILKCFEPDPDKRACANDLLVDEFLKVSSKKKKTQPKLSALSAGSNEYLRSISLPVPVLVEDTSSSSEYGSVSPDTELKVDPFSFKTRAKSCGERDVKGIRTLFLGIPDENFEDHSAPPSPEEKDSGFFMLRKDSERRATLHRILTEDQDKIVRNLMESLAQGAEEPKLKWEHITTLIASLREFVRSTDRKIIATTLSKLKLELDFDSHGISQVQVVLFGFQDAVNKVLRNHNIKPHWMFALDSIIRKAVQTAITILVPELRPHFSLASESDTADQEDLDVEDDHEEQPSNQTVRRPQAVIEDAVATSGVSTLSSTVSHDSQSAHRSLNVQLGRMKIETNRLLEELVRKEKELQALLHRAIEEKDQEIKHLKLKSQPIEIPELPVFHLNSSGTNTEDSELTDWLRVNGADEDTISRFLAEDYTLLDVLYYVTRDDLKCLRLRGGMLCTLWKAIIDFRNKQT
Nature of the assay: ASK1 kinase HTRF assay (HTRF KinEASE-STK, phosphorylation of biotinylated peptide substrate). Type of assay: biochemical.
Details: not given
The procedure: Reagents: Recombinant human ASK1 kinase was from Invitrogen Inc. HTRF KinEASETM-STK S3 kit was obtained from Cisbio (Bedford, Mass.). All other reagents were of the highest grade commercially available.
Assay: The assay measures the phosphorylation level of a biotinylatd peptide substrate by the ASK1 kinase using HTRF detection. ASK1 kinase assay is based on HTRF KinEASETM-STK manual from Cisbio. Test compound, 1 uM STK-substrate-biotin, 3 nM of ASK1 kinase are incubated with 1*Kinase buffer with 5 mM MgCl2 and 1 mM DTT.
With `CC(C)n1cnnc1-c1cccc(NC(=O)Nc2cc(C(=O)N3CCCCC3)ccn2)n1` [Compound I-109], the EC50 is under 50 nM.
Still for that read-out and setting: under `C[C@H](CO)n1cnnc1-c1cccc(NC(=O)Nc2cc(C(=O)N3CCCCC3)ccn2)n1` [Compound I-110] stands under 50 nM; under `CC(C)n1cnnc1-c1cccc(NC(=O)Nc2cc(C(=O)N3CCOCC3)ccn2)n1` [Compound I-132], under 50 nM.
Still for that read-out and setting: under `C[C@H](CO)n1cnnc1-c1cccc(NC(=O)Nc2cc(C(=O)N3CCOCC3)ccn2)n1` [Compound I-133] stands under 50 nM; under `CC(C)n1cnnc1-c1cccc(NC(=O)Nc2cc(C(=O)N3CCC(=O)CC3)ccn2)n1` [Compound I-134], under 50 nM; under `C[C@H](CO)n1cnnc1-c1cccc(NC(=O)Nc2cc(C(=O)N3CCC(=O)CC3)ccn2)n1` [Compound I-135], under 50 nM.
With `CC(C)n1cnnc1-c1cccc(NC(=O)Nc2cc(C(=O)N3CCNCC3)ccn2)n1` [Compound I-139], the EC50 was under 50 nM.
Regarding `C[C@H](CO)n1cnnc1-c1cccc(NC(=O)Nc2cc(C(=O)N3CCNCC3)ccn2)n1` [Compound I-140], the half-maximal effective concentration (EC50) was under 50 nM.
The same measure, in the same setting: next, `CC(C)n1cnnc1-c1cccc(NC(=O)Nc2cc(C(=O)N3CCCC3)ccn2)n1` [Compound I-145]: under 50 nM; `C[C@H](CO)n1cnnc1-c1cccc(NC(=O)Nc2cc(C(=O)N3CCCC3)ccn2)n1` [Compound I-146]: under 50 nM.

Staying with this assay, now noted: 3 nM ASK1 kinase, 1 uM STK-substrate-biotin, HTRF detection; read-out: EC50.
Turning to `CC(C)n1cnnc1-c1cccc(NC(=O)Nc2cc(N3CCC(N4CCOCC4)CC3)ccn2)n1` [Compound I-106], the EC50 is under 50 nM.
Same read-out and setting: next, `C[C@H](CO)n1cnnc1-c1cccc(NC(=O)Nc2cc(N3CCC(N4CCOCC4)CC3)ccn2)n1` [Compound I-107]: under 50 nM.
The same measure, in the same setting: next, `CC(C)n1cnnc1-c1cccc(NC(=O)Nc2cc(C(N)=O)ccn2)n1` [Compound I-108]: under 50 nM; `CC1(n2cnnc2-c2cccc(NC(=O)Nc3cc(C(=O)N4CCCCC4)ccn3)n2)CC1` [Compound I-115]: under 50 nM; `CC(C)n1cnnc1-c1cccc(NC(=O)Nc2cc(C(=O)N3CCC(C)(C)CC3)ccn2)n1` [Compound I-117]: under 50 nM.
In the case of `CC(C)n1cnnc1-c1cccc(NC(=O)Nc2cc(C(=O)N3CCCC[C@@H]3C)ccn2)n1` [Compound I-118], the EC50 was under 50 nM.
On to `C[C@H](CO)n1cnnc1-c1cccc(NC(=O)Nc2cc(C(=O)N3CCCC[C@@H]3C)ccn2)n1` [Compound I-119], for which the EC50 was under 50 nM.
Turning to `CC(C)n1cnnc1-c1cccc(NC(=O)Nc2cc(C(=O)N3CCCC[C@H]3C)ccn2)n1` [Compound I-120], the EC50 is under 50 nM.
On the same count and under the same terms, under `C[C@@H]1CCCCN1C(=O)c1ccnc(NC(=O)Nc2cccc(-c3nncn3[C@H](C)CO)n2)c1` [Compound I-121] stands under 50 nM; under `C[C@H](CO)n1cnnc1-c1cccc(NC(=O)Nc2cc(C(=O)N3CCc4ccccc4C3)ccn2)n1` [Compound I-122], under 50 nM.
Regarding `CC(C)n1cnnc1-c1cccc(NC(=O)Nc2cc(C(=O)N3CCCc4ccccc43)ccn2)n1` [Compound I-123], the EC50 is under 50 nM.
On the same count and under the same terms, under `C[C@H](CO)n1cnnc1-c1cccc(NC(=O)Nc2cc(C(=O)N3CCCc4ccccc43)ccn2)n1` [Compound I-124] stands under 50 nM; under `CC(C)n1cnnc1-c1cccc(NC(=O)Nc2cc(C(=O)N3CCCC4CCCCC43)ccn2)n1` (stereo not drawn) [Compound I-125], under 50 nM; under `C[C@H](CO)n1cnnc1-c1cccc(NC(=O)Nc2cc(C(=O)N3CCC[C@@H]4CCCC[C@H]43)ccn2)n1` [Compound I-126], under 50 nM.
Regarding `CC(C)n1cnnc1-c1cccc(NC(=O)Nc2cc(C(=O)N3CC[C@@H]4CCCC[C@H]4C3)ccn2)n1` [Compound I-127], the half-maximal effective concentration (EC50) is under 50 nM.
On the same count and under the same terms, next, `CC(C)n1cnnc1-c1cccc(NC(=O)Nc2cc(C(=O)N3CCC4(CCCCC4)CC3)ccn2)n1` [Compound I-128]: under 50 nM; `C[C@H](CO)n1cnnc1-c1cccc(NC(=O)Nc2cc(C(=O)N3CCC4(CCCCC4)CC3)ccn2)n1` [Compound I-129]: under 50 nM; `CC(C)n1cnnc1-c1cccc(NC(=O)Nc2cc(C(=O)N3CCC(N4CCOCC4)CC3)ccn2)n1` [Compound I-130]: under 50 nM.
The same measure, in the same setting: under `C[C@H](CO)n1cnnc1-c1cccc(NC(=O)Nc2cc(C(=O)N3CCC(N4CCOCC4)CC3)ccn2)n1` [Compound I-131] stands under 50 nM; under `CC(C)n1cnnc1-c1cccc(NC(=O)Nc2cc(C(=O)N3CCC(O)CC3)ccn2)n1` [Compound I-136], under 50 nM.
With `C[C@H](CO)n1cnnc1-c1cccc(NC(=O)Nc2cc(C(=O)N3CCC(O)CC3)ccn2)n1` [Compound I-137], the EC50 was under 50 nM.
The same measure, in the same setting: next, `CC(C)n1cnnc1-c1cccc(NC(=O)Nc2cc(C(=O)N3CCC(C)(O)CC3)ccn2)n1` [Compound I-138]: under 50 nM; `CC(C)n1cnnc1-c1cccc(NC(=O)Nc2cc(C(=O)N3CCN(C)CC3)ccn2)n1` [Compound I-141]: under 50 nM; `C[C@H](CO)n1cnnc1-c1cccc(NC(=O)Nc2cc(C(=O)N3CCN(C)CC3)ccn2)n1` [Compound I-142]: under 50 nM.
Regarding `CC(C)n1cnnc1-c1cccc(NC(=O)Nc2cc(C(=O)N3CCC(F)(F)CC3)ccn2)n1` [Compound I-143], the EC50 was under 50 nM.
As for `C[C@H](CO)n1cnnc1-c1cccc(NC(=O)Nc2cc(C(=O)N3CCC(F)(F)CC3)ccn2)n1` [Compound I-144], the EC50 is under 50 nM.
On the same count and under the same terms, under `CC(C)n1cnnc1-c1cccc(NC(=O)Nc2cc(C(=O)N3CCCCCC3)ccn2)n1` [Compound I-147] stands under 50 nM; under `C[C@H](CO)n1cnnc1-c1cccc(NC(=O)Nc2cc(C(=O)N3CCCCCC3)ccn2)n1` [Compound I-148], under 50 nM.
Still for that read-out and setting: next, `CC(C)n1cnnc1-c1cccc(NC(=O)Nc2cc(C(=O)N3C4CCCC3CC4)ccn2)n1` [Compound I-149]: under 50 nM; `C[C@H](CO)n1cnnc1-c1cccc(NC(=O)Nc2cc(C(=O)N3C4CCCC3CC4)ccn2)n1` [Compound I-150]: under 50 nM.
Turning to `CC(C)n1cnnc1-c1cccc(NC(=O)Nc2cc(C(=O)NC3CCCCC3)ccn2)n1` [Compound I-151], the concentration giving a half-maximal response (EC50) was under 50 nM.
As to `CC(C)n1cnnc1-c1cccc(NC(=O)Nc2cc(C(=O)Nc3ccccc3)ccn2)n1` [Compound I-152], the EC50 was under 50 nM.
With `C[C@H](CO)n1cnnc1-c1cccc(NC(=O)Nc2cc(C(=O)Nc3ccccc3)ccn2)n1` [Compound I-153], the EC50 was under 50 nM.
Same read-out and setting: next, `CC(C)n1cnnc1-c1cccc(NC(=O)Nc2cc(C(=O)Nc3ccc4ccccc4c3)ccn2)n1` [Compound I-154]: under 50 nM; `CC(C)n1cnnc1-c1cccc(NC(=O)Nc2cc(C(=O)Nc3ccc(-c4ccccc4)cc3)ccn2)n1` [Compound I-155]: under 50 nM.
In the case of `CC(C)n1cnnc1-c1cccc(NC(=O)Nc2cc(C(=O)Nc3ccccc3F)ccn2)n1` [Compound I-156], the EC50 was under 50 nM.
In the case of `CC(C)n1cnnc1-c1cccc(NC(=O)Nc2cc(C(=O)Nc3cccc(F)c3)ccn2)n1` [Compound I-157], the EC50 is under 50 nM.
Same read-out and setting: next, `CC(C)n1cnnc1-c1cccc(NC(=O)Nc2cc(C(=O)Nc3ccc(F)cc3)ccn2)n1` [Compound I-158]: under 50 nM; `C[C@H](CO)n1cnnc1-c1cccc(NC(=O)Nc2cc(C(=O)Nc3ccc(F)cc3)ccn2)n1` [Compound I-159]: under 50 nM.
The same measure, in the same setting: next, `CC(C)n1cnnc1-c1cccc(NC(=O)Nc2cc(C(=O)Nc3ccc(C(C)(C)C)cc3)ccn2)n1` [Compound I-160]: under 50 nM.
On the same count and under the same terms, next, `CC(C)n1cnnc1-c1cccc(NC(=O)Nc2cc(C(=O)Nc3ccccn3)ccn2)n1` [Compound I-161]: under 50 nM.

In general, EC50 refers to the concentration that produces a half-maximal response.
